In this experiment the test system is spleen lymphocytes. Kind of experiment: Lymphocyte stimulation assay after in vivo treatment, C57BL/6 mice. Conditions: 4 days. As to the method:
The purpose of this assay is to challenge lymphocytes in microcultures with one or more polyclonal mitogens at concentrations that will induce mitogenesis within 72 hours of stimulation.
In the mouse model, spleens are removed from different strains of mice and the spleen cells are teased free and suspended in RPMI-1640 tissue culture medium at a concentration of usually […]. These cells are dispensed at a concentration of 5.0×10^5 cells per microculture well in a 96 well flat bottom 96 well tissue culture plate. All testing of the compounds of this invention or mitogens are done in replicates of 10. The cells are then treated with PHA, Con-A, specific antigens, or buffer only. If in vitro testing is done, varying concentrations of the compounds of this invention or buffer only are added to the cells as well. After treatment with the mitogens and/or compounds of this invention, the cells are incubated for 72 hours. The response of these cells to mitogens and/or the compounds of this invention is assessed using ^14 C-thymidine labeling on the fourth day at a concentration of 0.01 μCi/well. The labeled cells are harvested using a lymphocyte harvestor and placed onto fibrous paper discs. A scintillation cocktail is added to vials containing the discs and the results are obtained using a LKB-liquid scintillation counter (Model 1216/Rackbeta II). The data is expressed as a ratio of the cpm of the mitogen stimulated group to the control (nonmitogen) treated group=lymphocyte stimulation index (LSI).
The lymphocyte stimulation assay may be performed directly on spleen cells obtained from various strains of mice not treated with the compounds of this invention or on lymphocytes obtained from human […]. […] Alternatively, the mice may be treated in vivo with the compounds of this invention by intraperitoneal multi-dose schedules, followed by sacrifice and harvesting spleen lymphocytes. These cells are then tested for their response to polyclonal mitogens or specific antigens used to immunize the mice. In this system however, no additional compound is added to the in vitro lymphocyte stimulation assay system.
Two strains of mice, C57BL/6 and BDF1 are treated for seven days with i.p. administration of either 25, 50, 100, 200, or 400 mg/kg of Cpd. 1 or just buffer. This is followed on the eighth day by a lymphocyte stimulation assay.
A comparison is made of the lymphocyte response of C57BL/6 mice treated 4 days with i.p. administration of either 50, 100, 200, 400 or 800 mg/kg of Cpd. 1, 50, 100, 200, 400 or 800 mg/kg of ascorbic acid (AA), or just buffer. This is followed on the fifth day by a lymphocyte stimulation assay.
Two strains of mice, C57BL/6 and BALB/c, are treated 4 days with i.p. administration of either 50, 100, 200, or 400 mg/kg of Cpd. 1, or just buffer. This is followed on the fifth day by a lymphocyte stimulation assay.
C57BL/6 mice were treated with four daily i.p. doses of either 50, 100, 200, or 400 mg/kg of Cpd. 1 or just buffer. On the fifth day a lymphocyte stimulation assay was performed.
Mice of the C57BL/6 strain were tested with i.p. administration of either 100, 200, 400 or 600 mg/kg of Cpd. 1 or just buffer. This was followed by removal of spleens and treatment of lymphocytes therein with mitogens PHA and Con-A.
The compound of Example 2, Cpd. 2, was tested in vivo by using C57BL/6 mice and treating them with […] or just buffer for four consecutive days by the i.p. route. On the fifth day a lymphocyte stimulation assay was performed.

On to “2-furylbutyrolactone:succinimide [Cpd. 2]”, for which the “Lymphocyte Stimulation Index, Con-A” value is recorded as 96.1 (50 mg/kg i.p.); 105 (100 mg/kg i.p.); 99.3 (200 mg/kg i.p.); 109 (400 mg/kg i.p.); 94.0 (600 mg/kg i.p.). The “Lymphocyte Stimulation Index, Control (no mitogen)” value (50 mg/kg i.p.) is listed as “.88”; the “Lymphocyte Stimulation Index, Control (no mitogen)” value (100 mg/kg i.p.) stood at 1.5; the “Lymphocyte Stimulation Index, Control (no mitogen)” value (200 mg/kg i.p.) is reported as “.69”; the “Lymphocyte Stimulation Index, Control (no mitogen)” value (400 mg/kg i.p.) was 1.3; the “Lymphocyte Stimulation Index, Control (no mitogen)” value (600 mg/kg i.p.) came to 1.5. In addition, the “Lymphocyte Stimulation Index, PHA” value reads like this: (50 mg/kg i.p.) 15.5; (100 mg/kg i.p.) 15.4; (200 mg/kg i.p.) 11.3; (400 mg/kg i.p.) 12.9; (600 mg/kg i.p.) 15.8. For the setting “i.p., Con-A”, the “effect on Con-A response (in words)” value is on record as “only marginal stimulation of Con-A mitogenesis”. The “effect on PHA response (in words)” value (i.p., PHA) is “no effect on PHA mitogenesis”.
